# Test results reported in ChEMBL document CHEMBL4373744, “Modifying the lipophilic part of phenylthiazole antibiotics to control their drug-likeness” (Eur J Med Chem, 2020).
# Calls of active or inactive are those of the source. The calls are words filed in the database; no cut-off is given here.
# What was measured:
# Staphylococcus aureus [1] = assay: microbe, parasite or virus in culture; details: NRS123
# Description: Antimicrobial activity against methicillin-resistant Staphylococcus aureus NRS123 by broth liquid microdilution method
# Staphylococcus aureus [2] = assay: Antimicrobial activity against vancomycin-resistant Staphylococcus aureus 12 by broth liquid microdilution method; type: functional
# [3] = AUC in Sprague-Dawley rat at 50 mg/kg, po via gavage administered as a single dose measured upto 24 hrs by LC/MS/MS analysis; type: ADME, organism-based; set-up: time < 24 hr, dose 50 mg/kg, route oral; details: in vivo
# [4] = Tmax in Sprague-Dawley rat at 50 mg/kg, po via gavage administered as a single dose measured upto 24 hrs by LC/MS/MS analysis; type: ADME, organism-based; details: in vivo
# Listeria monocytogenes = assay: Antimicrobial activity against Listeria monocytogenes ATCC 19111 by broth liquid microdilution method; type: functional
# Staphylococcus aureus [5] = assay: Antimicrobial activity against vancomycin-resistant Staphylococcus aureus 10 by broth liquid microdilution method; type: functional
# Staphylococcus aureus [6] = assay: microbe, parasite or virus in culture; details: NRS 107
# Description: Antimicrobial activity against methicillin-sensitive Staphylococcus aureus NRS 107 by broth liquid microdilution method
# Staphylococcus aureus [7] = assay: Antibiofilm activity against methicillin-resistant Staphylococcus aureus USA300 at 4 times MIC incubated for 24 hrs by crystal violet staining based assay relative to control; type: functional
# Streptococcus pneumoniae [8] = assay: Antimicrobial activity against methicillin-resistant Streptococcus pneumoniae ATCC 700677 by broth liquid microdilution method; type: functional
# Staphylococcus aureus [9] = assay: microbe, parasite or virus in culture; details: ATCC 6538
# Description: Antimicrobial activity against methicillin-sensitive Staphylococcus aureus ATCC 6538 by broth liquid microdilution method
# Staphylococcus aureus [10] = assay: microbe, parasite or virus in culture; details: NRS 385
# Description: Antimicrobial activity against methicillin-resistant Staphylococcus aureus NRS 385 by broth liquid microdilution method
# Staphylococcus aureus [11] = assay: Antibiofilm activity against methicillin-resistant Staphylococcus aureus USA300 incubated for 24 hrs by crystal violet staining based assay; type: functional, organism-based
# [12] = Half life in Sprague-Dawley rat at 50 mg/kg, po via gavage administered as a single dose measured upto 24 hrs by LC/MS/MS analysis; type: ADME, organism-based; details: in vivo
# [13] = Aqueous solubility of compound in pH 6.8 phosphate buffer; type: physicochemical
# Staphylococcus aureus [14] = assay: Antimicrobial activity against methicillin-resistant Staphylococcus aureus USA400 infected in mouse J774 cells assessed as reduction in […] bacterial count at 2 times MIC incubated for 24 hrs relative to control; type: functional; set-up: scale not given: the % may be the effect or the level left
# Streptococcus pneumoniae [15] = assay: Antimicrobial activity against cephalosporin-resistant Streptococcus pneumoniae ATCC 51916 by broth liquid microdilution method; type: functional
# [16] = Cmax in Sprague-Dawley rat at 50 mg/kg, po via gavage administered as a single dose measured upto 24 hrs by LC/MS/MS analysis; type: ADME, organism-based; set-up: dose 50 mg/kg, route oral; details: in vivo
# [17] = Clearance in Sprague-Dawley rat at 50 mg/kg, po via gavage administered as a single dose measured upto 24 hrs by LC/MS/MS analysis; type: ADME, organism-based; details: in vivo
# Staphylococcus aureus [18] = assay: Antibiofilm activity against methicillin-resistant Staphylococcus aureus USA300 at 2 times MIC incubated for 24 hrs by crystal violet staining based assay relative to control; type: functional
# J774 = assay: Cytotoxicity against mouse J774 cells assessed as reduction in cell viability at 4 to 8 ug/ml incubated for 24 hrs by MTS assay; type: cell-based; details: j774, 24 h
# Escherichia coli [19] = assay: Antimicrobial activity against Escherichia coli JW55031 harboring deltatolC mutant by broth liquid microdilution method; type: functional
# [20] = Volume of distribution in Sprague-Dawley rat at 50 mg/kg, po via gavage administered as a single dose measured upto 24 hrs by LC/MS/MS analysis; type: ADME, organism-based; details: in vivo
# Escherichia coli [21] = assay: Antimicrobial activity against Escherichia coli BW25113 by broth liquid microdilution method; type: functional
# Enterococcus faecalis = assay: microbe, parasite or virus in culture; details: ATCC 51299
# Staphylococcus aureus [22] = assay: microbe, parasite or virus in culture; details: NRS 386
# Description: Antimicrobial activity against methicillin-resistant Staphylococcus aureus NRS 386 by broth liquid microdilution method
# Staphylococcus aureus [23] = assay: Bactericidal activity against methicillin-resistant Staphylococcus aureus USA400 assessed as reduction in number of colony forming units at 5 times MIC incubated for 12 hrs by aliquots transfer to tryptic soy agar and grown for 18 to 20 hrs by Time-kill assay relative to control; type: functional; set-up: scale not given: the % may be the effect or the level left
# Staphylococcus aureus [24] = assay: Antimicrobial activity against methicillin-resistant Staphylococcus aureus USA400 infected in mouse J774 cells assessed as reduction in […] bacterial count at 4 times MIC incubated for 24 hrs relative to control; type: functional; set-up: scale not given: the % may be the effect or the level left
# Enterococcus faecium = assay: Antimicrobial activity against vancomycin-resistant Enterococcus faecium ATCC 700221 by broth liquid microdilution method; type: functional
# Staphylococcus aureus [25] = assay: microbe, parasite or virus in culture; details: NRS384
# Description: Antimicrobial activity against methicillin-resistant Staphylococcus aureus NRS384 by broth liquid microdilution method
# Staphylococcus aureus [26] = assay: Bactericidal activity against methicillin-resistant Staphylococcus aureus USA400 assessed as 3 log reduction in number of colony forming units at 5 times MIC incubated for 10 hrs by aliquots transfer to tryptic soy agar and grown for 18 to 20 hrs by Time-kill assay; type: functional, organism-based
# [27] = test system: Staphylococcus epidermidis; assay: Antimicrobial activity against methicillin-resistant Staphylococcus epidermidis NRS101 by broth liquid microdilution method; type: functional
# Staphylococcus aureus [28] = assay: microbe, parasite or virus in culture; details: NRS119
# Description: Antimicrobial activity against methicillin-resistant Staphylococcus aureus NRS119 by broth liquid microdilution method
# Staphylococcus aureus [29] = assay: Bactericidal activity against methicillin-resistant Staphylococcus aureus USA400 assessed as 3 log reduction in number of colony forming units at 5 times MIC incubated for 12 hrs by aliquots transfer to tryptic soy agar and grown for 18 to 20 hrs by Time-kill assay; type: functional, organism-based
# Staphylococcus aureus [30] = assay: Antimicrobial activity against methicillin-resistant Staphylococcus aureus USA400 infected in mouse J774 cells assessed as reduction in […] bacterial count at 2 to 4 times MIC incubated for 24 hrs; type: functional, organism-based
structure (smiles),measurement,setting,value
C/C(=N\NC(=N)N)c1sc(-c2ccc(C#CCCN3CCC3)cc2)nc1C,MBC,Staphylococcus aureus [1],4 µg/mL
same,MIC,Staphylococcus aureus [1],2 µg/mL
same,MBC,Staphylococcus aureus [2],16 µg/mL
same,MIC,Staphylococcus aureus [2],4 µg/mL
same,AUC at 24 h,[3],162 µg·h/mL
same,Tmax,[4],1 h
same,MBC,Listeria monocytogenes,8 µg/mL
same,MIC,Listeria monocytogenes,4 µg/mL
same,MBC,Staphylococcus aureus [5],8 µg/mL
same,MIC,Staphylococcus aureus [5],2 µg/mL
same,MBC,Staphylococcus aureus [6],8 µg/mL
same,MIC,Staphylococcus aureus [6],2 µg/mL
same,Activity,Staphylococcus aureus [7],41%
same,MBC,Streptococcus pneumoniae [8],8 µg/mL
same,MIC,Streptococcus pneumoniae [8],2 µg/mL
same,MBC,Staphylococcus aureus [9],8 µg/mL
same,MIC,Staphylococcus aureus [9],2 µg/mL
same,MBC,Staphylococcus aureus [10],4 µg/mL
same,MIC,Staphylococcus aureus [10],4 µg/mL
same,Activity,Staphylococcus aureus [11],Dose-dependent effect
same,half-life,[12],2.9 h
same,solubility,[13],500 µM
same,Activity,Staphylococcus aureus [14],98%
same,MBC,Streptococcus pneumoniae [15],8 µg/mL
same,MIC,Streptococcus pneumoniae [15],2 µg/mL
same,Cmax,[16],15600 ng/mL
same,CL/F,[17],5.17 mL/min
same,Activity,Staphylococcus aureus [18],31%
same,Activity,J774,Non-Toxic
same,MIC,Escherichia coli [19],32 µg/mL
same,Vd,[20],1.29 L
same,MIC,Escherichia coli [21],> 64 µg/mL
same,MBC,Enterococcus faecalis,16 µg/mL
same,MIC,Enterococcus faecalis,4 µg/mL
same,MBC,Staphylococcus aureus [22],8 µg/mL
same,MIC,Staphylococcus aureus [22],2 µg/mL
same,Activity,Staphylococcus aureus [23],100%
same,Activity,Staphylococcus aureus [24],99.7%
same,MBC,Enterococcus faecium,8 µg/mL
same,MIC,Enterococcus faecium,2 µg/mL
same,MBC,Staphylococcus aureus [25],4 µg/mL
same,MIC,Staphylococcus aureus [25],2 µg/mL
same,Activity,Staphylococcus aureus [26],Active
same,MBC,[27],4 µg/mL
same,MIC,[27],1 µg/mL
same,MBC,Staphylococcus aureus [28],8 µg/mL
same,MIC,Staphylococcus aureus [28],2 µg/mL
CN[C@H](CC(C)C)C(=O)N[C@H]1C(=O)N[C@@H](CC(N)=O)C(=O)N[C@H]2C(=O)N[C@H]3C(=O)N[C@H](C(=O)N[C@H](C(=O)O)c4cc(O)cc(O)c4-c4cc3ccc4O)[C@H](O)c3ccc(c(Cl)c3)Oc3cc2cc(c3O[C@@H]2O[C@H](CO)[C@@H](O)[C@H](O)[C@H]2O[C@H]2C[C@](C)(N)[C@H](O)[C@H](C)O2)Oc2ccc(cc2Cl)[C@H]1O [VANCOMYCIN],MBC,Staphylococcus aureus [1],1 µg/mL
same,MBC,Staphylococcus aureus [2],64 µg/mL
same,MIC,Staphylococcus aureus [2],64 µg/mL
same,MIC,Listeria monocytogenes,1 µg/mL
same,MBC,Staphylococcus aureus [5],> 64 µg/mL
same,MIC,Staphylococcus aureus [5],64 µg/mL
same,MBC,Staphylococcus aureus [6],2 µg/mL
same,Activity,Staphylococcus aureus [7],16%
same,MIC,Streptococcus pneumoniae [8],2 µg/mL
same,Activity,Staphylococcus aureus [29],Active
same,MBC,Staphylococcus aureus [9],2 µg/mL
same,MBC,Staphylococcus aureus [10],1 µg/mL
same,MIC,Streptococcus pneumoniae [15],1 µg/mL
same,Activity,Staphylococcus aureus [18],9%
same,MIC,Escherichia coli [19],≤ 0.5 µg/mL
same,Activity,Staphylococcus aureus [30],inactive
same,MIC,Escherichia coli [21],≤ 0.5 µg/mL
same,MBC,Enterococcus faecalis,64 µg/mL
same,MIC,Enterococcus faecalis,32 µg/mL
same,MBC,Staphylococcus aureus [22],1 µg/mL
same,MBC,Enterococcus faecium,> 64 µg/mL
same,MIC,Enterococcus faecium,> 64 µg/mL
same,MBC,Staphylococcus aureus [25],1 µg/mL
same,MBC,[27],2 µg/mL
same,MBC,Staphylococcus aureus [28],2 µg/mL
